Experimental data from US6361805B1, “Method of preparation and composition of a water soluble extract of the plant species uncaria for enhancing immune, anti-inflammatory, anti-tumor and DNA repair processes of warm blooded animals” (priority 1997, dated 2002).

Test system: HL-60 cells
Assay: Induction of apoptosis, scored by phase contrast morphological criteria
Assay type: cell-based, human
Conditions: HL-60, 100 μM hydrogen peroxide positive control, 0-72 hours
Description: FIG. 2. Time course of apoptosis in HL-60 cells induced by C-MED-100 extract (Example 1) as compared to negative (no treatment) or positive (100 μM H2O2 exposure) controls.
For the purpose of evaluating apoptosis in vitro, human leukemic HL-60 cells were cultured at a density of 0.5×10^6 cells per milliliter in 10% calf serum supplemented RPMI medium in a 5% CO2 atmosphere at 37° C. for 48 hours. The cells were harvested by centrifugation and resuspended in a fresh medium at a concentration of 1-2×10^6 cells per milliliter in 15 milliliter Falcon test tubes for bioassay purposes. Next the cells were exposed to either 100 μM hydrogen peroxide as a positive control or 397 μg per milliliter C-Med-100 extract prepared according to Example 1 or no exposure for 0-72 hours at 37° C. Samples of cells were taken from the cultures at the time periods indicated in FIG. 2 and the % apoptosis in the total cells counted were analyzed and scored by phase contrast morphological criteria.

`OO` [Hydrogen peroxide] was tested, and the “apoptotic cells over time” value was “massive cell death by apoptosis within 24 hours”.
